# Laboratory results taken from ChEMBL document CHEMBL5143734, “Seco-Lupane Triterpene Derivatives Induce Ferroptosis through GPX4/ACSL4 Axis and Target Cyclin D1 to Block the Cell Cycle” (J Med Chem, 2022).
# The source made the active and inactive calls. The calls are words filed in the database; no cut-off is given here.
# Experiments:
# [1] = system: HepG2; assay: Induction of cell cycle arrest in human HepG2 cells assessed as decrease in cells at S phase at 0.5 to 2 uM; type: functional, cell-based; conditions: dose 0.5-2 µM
# [2] = system: HepG2; assay: Induction of ferroptosis in human HepG2 cells assessed as decreased in GSH level incubated for 36 hrs; type: functional, cell-based; conditions: dose 0.5-2 µM, DDE = dose-dependent effect
# [3] = system: HepG2; assay: Induction of ferroptosis in human HepG2 cells assessed as upregulation of ACSL4 mRNA expression at 0.25 to 1 uM by qRT-PCR analysis; type: functional, cell-based; conditions: dose 0.25-1 µM, time 24-48 hrs, TDE = time-dependent effect
# [4] = system: HepG2; assay: Antiproliferative activity against human HepG2 cells at 0.125 to 0.5 uM incubated for 48 hrs; type: functional, cell-based; conditions: dose 0.125-0.5 µM
# [5] = system: HepG2; assay: Induction of ferroptosis in human HepG2 cells assessed as increased in Fe2+ level incubated for 36 hrs; type: functional, cell-based; conditions: dose 0.5-2 µM, DDE = dose-dependent effect
# [6] = system: PC-3M; assay: Cytotoxicity against human PC-3M cells assessed as reduction in cell viability by CCK-8 assay; type: functional, cell-based
# [7] = system: HepG2; assay: Cytotoxicity against human HepG2 cells assessed as reduction in cell viability at 1.5625 uM incubated for 48 hrs by CCK-8 assay relative to control; type: functional
# [8] = system: HepG2; assay: Antiproliferative activity against human HepG2 cells assessed as inhibition of clone formation pretreated for 48 hrs followed by replacement with drug free medium every 3 days for 10 days by crystalline violet staining based assay; type: functional, cell-based; conditions: dose 0.5-2 µM, DDE = dose-dependent effect
# [9] = system: HepG2; assay: Induction of ferroptosis in human HepG2 cells assessed as increase in ACSL4 mRNA expression measured after 6 to 36 hrs by qRT-PCR analysis; type: functional, cell-based; conditions: dose 0.25-1 µM, time 6-36 hrs, DDE = dose-dependent effect
# [10] = system: HepG2; assay: Antiproliferative activity against human HepG2 cells at 0.125 to 2 uM by Edu staining based fluorescence microscopy assay; type: functional, cell-based; conditions: dose 0.125-2 µM, time 24-48 hrs, TDE = time-dependent effect
# [11] = system: HepG2; assay: Induction of cell cycle arrest in human HepG2 cells assessed as decrease in cells at G2 phase at 0.5 to 2 uM; type: functional, cell-based; conditions: dose 0.5-2 µM
structure (smiles),measurement,setting,value
C=C(C)[C@@H]1CC[C@]2(C(=O)OCCCCCn3cc(CCN)c4ccccc43)CC[C@]3(C)[C@H](C[C@H]4OC(=O)C[C@@H](O)[C@]5(C)[C@@H]4[C@@]3(C)CC[C@H]5C(=C)C)[C@@H]12,Activity,[1],Active
same,Activity,[2],Dde
same,Activity,[3],Tde
same,Activity,[4],Active
same,Activity,[5],Dde
same,IC50,[6],3.93 µM
same,inhibition at 1.562 µM,[7],95.1%
same,Activity,[8],Dde
same,Activity,[9],Dde
same,Activity,[10],Tde
same,Activity,[11],Active
